From patent publication US10646442B2, “Liposome composition and method for producing same” (FUJIFILM Corporation, priority 2014, dated 2020)
pIC50: −log10 of the molar value. Structures can show the parent of a compound that is named as a salt.

How the values were obtained:
[1] = tested on: Capan-1 (human pancreatic cancer cell line); test: In vitro cancer cell growth inhibition; type: cell-based; settings: Capan-1, cultured 144 hours, Luminescent Cell Viability Assay, read-out: IC50 (drug effect concentration that inhibits 50% of cancer cell growth)
Method: 2×10^3 cells/[…]/well of Capan-1 (human pancreatic cancer cell line) were seeded onto a 96-well plate. Subsequently, a free drug (gemcitabine hydrochloride) solution, and a drug encapsulated in the liposome compositions of Example 4 and Comparative Examples 4 and 5 were added at each concentration, and cultured until after 144 hours. The cell viability was calculated from the amount of luminescence obtained by a Luminescent Cell Viability Assay after the completion of the culture. In addition, a drug effect concentration (IC50) that inhibits 50% of cancer cell growth was determined.

[2] = reference value for free drug in mice; not among the administered groups; cited from earlier work
[3] = Retentivity in blood (free pemetrexed concentration in blood plasma); type: in vivo; settings: mouse, intravenous, 6 mg/kg in terms of drug amount, tail vein injection, male C3H mice
Method: Further, the liposome composition of Example 10 at a dose of 6 mg/kg in terms of drug amount was administered via tail vein injection to 8-week old male C3H mice under the non-fasting conditions. Blood was collected at 15 minutes, 1 hour, 4 hours, and 24 hours after the administration was completed, and the free pemetrexed concentration in blood plasma was quantified to calculate a T1/2.

| pIC50 [1] | half-life [3] [h] | SMILES | T1/2 of free gemcitabine in mice [2] [h] |
| --- | --- | --- | --- |
| 8.15 | – | Nc1ccn([C@@H]2O[C@H](CO)[C@@H](O)C2(F)F)c(=O)n1 [free drug, gemcitabine hydrochloride] | 0.7 |
| – | 2 | Nc1nc2[nH]cc(CCc3ccc(C(=O)N[C@@H](CCC(=O)O)C(=O)O)cc3)c2c(=O)[nH]1 [drug aqueous solution, pemetrexed disodium heptahydrate] | – |
